In PubChem BioAssay AID248 (DTP/NCI, 2004):
Inconclusive results and toxic doses are left out. No stated cut-off is given here; in the data, active means T/C of 150% or more; inactive means T/C below 125%.

Tested on: L1210 leukemia ip in BDF1 mice, survival T/C
Experiment: NCI In Vivo Anticancer Drug Screen. Data for tumor model L1210 Leukemia (intraperitoneal) in B6D2F1 (BDF1) mice
Conditions: endpoint: mean survival time, higher = longer survival
Outline: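 Each compound was tested against a transplantable tumor grown in mice. The endpoint was survival, with treated animals benchmarked against vehicle controls as a simple ratio.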

[1] = dose: 100.0 mg/kg/injection, schedule: Q04DX002 (ip), vehicle: Klucel (hydroxypropylcellulose) (HPC)
[2] = dose: 200.0 mg/kg/injection, schedule: Q04DX002 (ip), vehicle: Klucel (hydroxypropylcellulose) (HPC)
[3] = dose: 400.0 mg/kg/injection, schedule: Q04DX002 (ip), vehicle: Klucel (hydroxypropylcellulose) (HPC)

Measured: T/C

Cc1cc(O)ccc1C1=NCC(C)S1 (stereo unspecified)
inactive: dose: 100.0 mg/kg/injection, schedule: Q01DX005 (ip), vehicle: Klucel (hydroxypropylcellulose) (HPC) 87 % of control | dose: 100.0 mg/kg/injection, schedule: Q01DX009 (ip), vehicle: Klucel (hydroxypropylcellulose) (HPC) 98 % of control | [1] 100 % of control | dose: 200.0 mg/kg/injection, schedule: Q01DX005 (ip), vehicle: Klucel (hydroxypropylcellulose) (HPC) 101 % of control | dose: 200.0 mg/kg/injection, schedule: Q01DX009 (ip), vehicle: Klucel (hydroxypropylcellulose) (HPC) 109 % of control | [2] 100 % of control | dose: 400.0 mg/kg/injection, schedule: Q01DX005 (ip), vehicle: Klucel (hydroxypropylcellulose) (HPC) 90 % of control | dose: 400.0 mg/kg/injection, schedule: Q01DX009 (ip), vehicle: Klucel (hydroxypropylcellulose) (HPC) 95 % of control | [3] 107 % of control

COC(=O)C1CC(=O)N(Cc2ccccc2)C1 (stereo unspecified)
inactive: [1] 89 % of control | [2] 100 % of control | [3] 92 % of control

CN(C)CCOC(=O)c1cccc(CCl)c1CCl
inactive: dose: 87.5 mg/kg/injection, schedule: Q01DX009 (ip), vehicle: saline 106 % of control

COC(=O)c1ccc(Cl)cc1OCC(=O)Nc1ccccc1
inactive: dose: 100.0 mg/kg/injection, schedule: Q01DX001 (ip), vehicle: Klucel (hydroxypropylcellulose) (HPC) 97 % of control | dose: 200.0 mg/kg/injection, schedule: Q01DX001 (ip), vehicle: Klucel (hydroxypropylcellulose) (HPC) 103 % of control | dose: 400.0 mg/kg/injection, schedule: Q01DX001 (ip), vehicle: Klucel (hydroxypropylcellulose) (HPC) 93 % of control

CCCCCCNC(=O)Oc1cccc(NC(=O)CC)c1
inactive: dose: 100.0 mg/kg/injection, schedule: Q04DX003 (ip), vehicle: saline with Tween-80 104 % of control | dose: 200.0 mg/kg/injection, schedule: Q04DX003 (ip), vehicle: saline with Tween-80 88 % of control | dose: 400.0 mg/kg/injection, schedule: Q04DX003 (ip), vehicle: saline with Tween-80 102 % of control

O=S(=O)(Nc1nccs1)c1ccc(N=Nc2ccc(O)c3ncccc23)cc1
inactive: dose: 200.0 mg/kg/injection, schedule: Q01DX001 (ip), vehicle: saline 102 % of control | dose: 400.0 mg/kg/injection, schedule: Q01DX001 (ip), vehicle: saline 101 % of control
